{"source": "paper PMC4549746", "about": "“Zearalenone in the Intestinal Tissues of Immature Gilts Exposed per os to Mycotoxins” (Toxins, 2015)", "origin": "cited, not measured here", "key": {"[1]": {"set-up": "method as in PMID 15972077", "details": "animal feed naturally contaminated with ZEN and α-ZEL; cited from earlier work"}, "[2]": {"details": "in vitro studies, cited from earlier work"}}, "note": "Like-named read-outs stand apart in the source and are kept apart here.", "data": [{"smiles": "C[C@H]1CCCC(=O)CCC/C=C/c2cc(O)cc(O)c2C(=O)O1", "note": "[ZEN, zearalenone]", "values": [{"measurement": "absorbed from the duodenum", "setting": "[1]", "value": 65, "unit": "%"}, {"measurement": "ingested ZEN absorbed in the small intestine", "setting": "[2]; ref 12", "value": 55, "unit": "%"}, {"measurement": "ingested ZEN absorbed in the small intestine", "setting": "[2]; ref 26", "value": 51, "unit": "%"}]}]}
